Test results published in publication PMC2605960 (Biochemical Journal, 2008).
Positions count from the first letter of the chain named. pKi: −log10 of the molar value. Each block holds one compound with its values, some of them ahead of it.

Legend:
[1] = molecular target: T1, FLAG-α1b-adrenoceptor TMI-TMIV-eYFP (Mesocricetus auratus, UniProt P18841, L166A/L167A/L65A/V66A); details: pKi, [3H]prazosin competition binding
T1 sequence (P18841 1-515 L65A/V66A/L166A/L167A): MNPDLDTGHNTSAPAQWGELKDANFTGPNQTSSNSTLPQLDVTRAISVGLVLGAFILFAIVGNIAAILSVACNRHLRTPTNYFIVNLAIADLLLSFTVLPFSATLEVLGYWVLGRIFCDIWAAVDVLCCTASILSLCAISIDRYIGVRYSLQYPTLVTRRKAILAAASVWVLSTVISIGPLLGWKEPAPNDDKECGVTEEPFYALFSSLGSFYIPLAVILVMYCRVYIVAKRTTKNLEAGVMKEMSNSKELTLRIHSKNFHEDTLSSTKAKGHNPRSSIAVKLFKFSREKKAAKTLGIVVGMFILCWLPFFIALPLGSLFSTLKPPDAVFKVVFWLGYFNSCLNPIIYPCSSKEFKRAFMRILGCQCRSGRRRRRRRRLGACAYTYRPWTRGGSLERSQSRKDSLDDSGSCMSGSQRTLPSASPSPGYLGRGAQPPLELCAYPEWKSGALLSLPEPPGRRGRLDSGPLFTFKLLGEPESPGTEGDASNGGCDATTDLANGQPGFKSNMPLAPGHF

[2] = molecular target: T2, FLAG-α1b-adrenoceptor-eYFP (Mesocricetus auratus, UniProt P18841); type: binding
T2 sequence (P18841 1-515): T1 sequence (P18841 1-515 L65A/V66A/L166A/L167A) with A65L, A66V, A166L, A167L

[3] = molecular target: T1, FLAG-α1b-adrenoceptor TMI-TMIV-eYFP; assay: Intact cell anti-FLAG ELISA of cell surface receptor; type: cell-based; details: for cell surface delivery of mutant receptor (anti-FLAG ELISA): 10^−5 M of each drug
[4] = molecular target: T1, FLAG-α1b-adrenoceptor TMI-TMIV-eYFP; type: cell-based; details: pre-treated with 10^−7 M overnight, then extensively washed; 0.4 nM [3H]prazosin
[5] = molecular target: T3, FLAG-α1b-adrenoceptor TMI-TMIV (Mesocricetus auratus, UniProt P18841, L166A/L167A/L65A/V66A); assay: Sequential 3-colour FRET imaging; type: cell-based; details: 10^−7 M, 12 h; transiently transfected HEK-293 cells
T3 sequence (P18841 1-515 L65A/V66A/L166A/L167A) 1: T1 sequence (P18841 1-515 L65A/V66A/L166A/L167A)
T3 sequence (P18841 1-515 L65A/V66A/L166A/L167A) 2: T1 sequence (P18841 1-515 L65A/V66A/L166A/L167A)
T3 sequence (P18841 1-515 L65A/V66A/L166A/L167A) 3: T1 sequence (P18841 1-515 L65A/V66A/L166A/L167A)

pKi [1]: 7.20
pKi [2]: 6.30
Structure (SMILES): CNC[C@H](O)c1ccc(O)c(O)c1 [adrenaline]

cell surface delivery of mutant receptor (anti-FLAG ELISA) ([3]; overnight treatment): significant cell surface delivery
Structure (SMILES): O=C(c1ccc(F)cc1)C1CCN(CCn2c(=O)[nH]c3ccccc3c2=O)CC1 [ketanserin]

sequential FRET signal (eCFP to dsRed2 FRET) [5]: increased
cell surface delivery of mutant receptor (anti-FLAG ELISA) ([3]; overnight treatment): most effective ligand tested
concentration of maximum effect on cell surface mutant receptor ([3]; overnight treatment): 10^−7 M
incubation time for maximum effect on cell surface mutant receptor ([3]; results not shown): 14 to 16 h
Structure (SMILES): COc1cc2nc(N3CCN(C(=O)c4ccco4)CC3)nc(N)c2cc1OC [prazosin]
cell surface mutant receptor by intact cell [3H]prazosin binding [4]: marked increases of cell surface FLAG-α1b-adrenoceptor TMI-TMIV-eYFP

Structure (SMILES): Cc1nc2sccn2c(=O)c1CCN1CCC(=C(c2ccc(F)cc2)c2ccc(F)cc2)CC1 [ritanserin]
cell surface delivery of mutant receptor (anti-FLAG ELISA) ([3]; overnight treatment): only ketanserin caused significant cell surface delivery
